For orientation: pIC50 means the negative decadic logarithm of the IC50, by convention in mol/L.

Results on 26 molecules are retold here after patent US8003658B2, “Quinazoline derivatives for inhibiting cancer cell growth and method for the preparation thereof” (Hanmi Holdings Co., Ltd., priority 2004, dated 2011).

For one assay, the system named is A431 (ATCC: CRL-1555). As to the kind of experiment: Test of cancer cell growth inhibition (SRB), A431. The following applies: read-out: IC50 A431.
Another assay relates to SK-Br3 (ATCC: HTB-30). As to the kind of experiment: Test of cancer cell growth inhibition (SRB), SK-Br3. The note with it: read-out: IC50 SK-Br-3.
[1] abbreviates: EGFR overexpressed A431, 72 hours, SRB.
[2] abbreviates: Erb-B2 overexpressed SK-Br3, 72 hours, SRB.

SMILES strings stand for the structures. pIC50: −log10 of the molar value. Like-named read-outs stand apart in the source and are kept apart here.

For `C=CC(=O)NCCC(=O)Nc1ccc2ncnc(Nc3ccc(OCc4cccc(C)n4)c(Cl)c3)c2c1` [Example 144, N-(2-{4-[3-chloro-4-(6-methyl-pyridin-2-ylmethoxy)-phenylamino]-quinazolin-6-ylcarbamoyl}-ethyl)-acrylamide], the negative-log IC50 (pIC50) is 7.14 in the assay on A431 (ATCC: CRL-1555) (Homo sapiens, A-431, 72 h) and 8.10 in the assay with SK-Br3 (ATCC: HTB-30) (Homo sapiens, SK-BR-3, 72 h).

On to `C=CC(=O)N1CCC[C@H]1C(=O)Nc1cc2c(Nc3ccc(OCc4ccccn4)c(C)c3)ncnc2cc1OC` [Example 168, (2S)-1-acryloyl-pyrrolidine-2-carboxylic acid {7-methoxy-4-[3-methyl-4-(pyridin-2-ylmethoxy)-phenylamino]-quinazolin-6-yl}-amide], for which the pIC50 was 7.17 in the assay with A431 (ATCC: CRL-1555) (Homo sapiens, A-431, 72 h) and 8.22 with SK-Br3 (ATCC: HTB-30) (Homo sapiens, SK-BR-3, 72 h).

`C=CC(=O)N1C[C@H](OC(C)=O)C[C@H]1C(=O)Nc1ccc2ncnc(Nc3ccc(OCc4ccccn4)c(Cl)c3)c2c1` [Example 148, (3R,5S)-acetic acid 1-acryloyl-5-{4-[3-chloro-4-(pyridin-2-ylmethoxy)-phenylamino]-quinazolin-6-ylcarbamoyl}-pyrrolidin-3-ylester]: the pIC50 was 7.47 in the assay on A431 (ATCC: CRL-1555) (Homo sapiens, A-431, 72 h) and 8.40 in the assay on SK-Br3 (ATCC: HTB-30) (Homo sapiens, SK-BR-3, 72 h).

Consider `C=CC(=O)N1CC=C[C@H]1C(=O)Nc1cc2c(Nc3ccc(OCc4ccccn4)c(Cl)c3)ncnc2cc1OC` [Example 179, (2S)-1-acryloyl-2,5-dihydro-1H-pyrrol-2-carboxylic acid {4-[3-chloro-4-(pyridin-2-ylmethoxy)-phenylamino]-7-methoxy-quinazolin-6-yl}-amide], for which the pIC50 was 6.92 in the assay on A431 (ATCC: CRL-1555) (Homo sapiens, A-431, 72 h) and 7.77 in the assay with SK-Br3 (ATCC: HTB-30) (Homo sapiens, SK-BR-3, 72 h).

As to `C=CC(=O)N1CCC[C@H]1C(=O)Nc1cc2c(Nc3ccc(OCc4ccccn4)c(C)c3)ncnc2cc1F` [Example 177, (2S)-1-acryloyl-pyrrolidine-2-carboxylic acid {7-fluoro-4-[3-methyl-4-(pyridin-2-ylmethoxy)-phenylamino]-quinazolin-6-yl}-amide], the pIC50 was 7.11 with A431 (ATCC: CRL-1555) (Homo sapiens, A-431, 72 h) and 8.05 in the assay on SK-Br3 (ATCC: HTB-30) (Homo sapiens, SK-BR-3, 72 h).

Consider `O=C(CCNC(=O)NCc1ccco1)Nc1ccc2ncnc(Nc3ccc(OCc4cccc(F)c4)c(Cl)c3)c2c1` [Example 125, N-{4-[3-chloro-4-(3-fluoro-benzyloxy)-phenylamino]-quinazolin-6-yl}-3-(3-furan-2-ylmethyl-ureido)-propionamide], for which the pIC50 with A431 (ATCC: CRL-1555) (Homo sapiens, A-431, 72 h) is 6.57; in the assay on SK-Br3 (ATCC: HTB-30) (Homo sapiens, SK-BR-3, 72 h) it was 7.08.

With `C=CC(=O)N1CCCC1CC(=O)Nc1cc2c(Nc3ccc(OCc4ccccn4)c(Cl)c3)ncnc2cc1OC` (stereo not shown) [Example 169, 2-(1-acryloyl-pyrrolidin-2-yl)-N-{4-[3-chloro-4-(pyridin-2-ylmethoxy)-phenylamino]-7-methoxy-quinazolin-6-yl}-acetamide], the pIC50 in the assay on A431 (ATCC: CRL-1555) (Homo sapiens, A-431, 72 h) was 7.10; in the assay on SK-Br3 (ATCC: HTB-30) (Homo sapiens, SK-BR-3, 72 h) it was 7.62.

On to `COCC(=O)Nc1ccsc1C(=O)Nc1ccc2ncnc(Nc3ccc(OCc4cccc(F)c4)c(Cl)c3)c2c1` [Example 48, 3-(2-methoxy-acetylamino)-thiophene-2-carboxylic acid {4-[3-chloro-4-(3-fluoro-benzyloxy)-phenylamino]-quinazolin-6-yl}-amide], for which the pIC50 with A431 (ATCC: CRL-1555) (Homo sapiens, A-431, 72 h) was 6.08; with SK-Br3 (ATCC: HTB-30) (Homo sapiens, SK-BR-3, 72 h), 6.88.

On to `CS(=O)(=O)CC(=O)NCCC(=O)Nc1ccc2ncnc(Nc3ccc(F)c(Cl)c3)c2c1` [Example 53-2, N-[4-(3-chloro-4-fluoro-phenylamino)-quinazolin-6-yl]-3-(2-methanesulfonyl-acetylamino)-propionamide], for which the pIC50 in the assay on A431 (ATCC: CRL-1555) (Homo sapiens, A-431, 72 h) is 6.91; in the assay with SK-Br3 (ATCC: HTB-30) (Homo sapiens, SK-BR-3, 72 h), 6.59.

Turning to `O=C(CCNC(=O)Nc1ccccc1)Nc1ccc2ncnc(Nc3ccc(OCc4cccc(F)c4)c(Cl)c3)c2c1` [Example 124, N-{4-[3-chloro-4-(3-fluoro-benzyloxy)-phenylamino]-quinazolin-6-yl}-3-(3-phenyl-ureido)-propionamide], the negative logarithm of the IC50 (pIC50) is 6.23 in the assay on A431 (ATCC: CRL-1555) (Homo sapiens, A-431, 72 h) and 6.97 in the assay with SK-Br3 (ATCC: HTB-30) (Homo sapiens, SK-BR-3, 72 h).

Regarding `CS(=O)(=O)CC(=O)N1CCCC1C(=O)Nc1ccc2ncnc(Nc3ccc(OCc4cccc(F)c4)c(Cl)c3)c2c1` (stereo not shown) [Example 17, 1-(2-methanesulfonyl-acetyl)-pyrrolidine-2-carboxylic acid {4-[3-chloro-4-(3-fluoro-benzyloxy)-phenylamino]-quinazolin-6-yl}-amide], the negative-log IC50 (pIC50) was 6.15 in the assay with A431 (ATCC: CRL-1555) (Homo sapiens, A-431, 72 h) and 6.74 in the assay on SK-Br3 (ATCC: HTB-30) (Homo sapiens, SK-BR-3, 72 h).

For `C=CC(=O)N1CCC[C@H]1C(=O)Nc1cc2c(Nc3ccc(OCc4ccccn4)c(Cl)c3)ncnc2cc1OCCF` [Example 187, (2S)-1-acryloyl-pyrrolidine-2-carboxylic acid [4-[3-chloro-4-(pyridin-2-ylmethoxy)-phenylamino]-7-(2-fluoro-ethoxy)-quinazolin-6-yl]-amide], the pIC50 was 7.66 in the assay on A431 (ATCC: CRL-1555) (Homo sapiens, A-431, 72 h) and 8.52 in the assay on SK-Br3 (ATCC: HTB-30) (Homo sapiens, SK-BR-3, 72 h).

For the molecule `C=CC(=O)N(CC)[C@@H](C)C(=O)Nc1cc2c(Nc3ccc(OCc4ccccn4)c(Cl)c3)ncnc2cc1OC` [Example 202, N-((1S)-1-{4-[3-chloro-4-(pyridin-2-ylmethoxy)-phenylamino]-7-methoxy-quinazolin-6-ylcarbamoyl}-ethyl)-N-ethyl-acrylamide], the pIC50 with A431 (ATCC: CRL-1555) (Homo sapiens, A-431, 72 h) is 6.98; with SK-Br3 (ATCC: HTB-30) (Homo sapiens, SK-BR-3, 72 h), 8.22.

For `C=CC(=O)NCCC(=O)Nc1cc2c(Nc3ccc(OCc4ccccn4)c(Cl)c3)ncnc2cc1F` [Example 192, N-(2-{4-[3-chloro-4-(pyridin-2-ylmethoxy)-phenylamino]-7-fluoro-quinazolin-6-ylcarbamoyl}-ethyl)-acrylamide], the negative logarithm of the IC50 (pIC50) is 7.44 with A431 (ATCC: CRL-1555) (Homo sapiens, A-431, 72 h) and 8.22 with SK-Br3 (ATCC: HTB-30) (Homo sapiens, SK-BR-3, 72 h).

For the molecule `C=CC(=O)N[C@@H](C)C(=O)Nc1cc2c(Nc3ccc(OCc4cccc(F)c4)c(Cl)c3)ncnc2cc1OCCOC` [Example 214, (1S)—N-(1-{4-[3-chloro-4-(3-fluoro-benzyloxy)-phenylamino]-7-(2-methoxyethoxy)-quinazolin-6-ylcarbamoyl}-ethyl)-acrylamide], the pIC50 in the assay with A431 (ATCC: CRL-1555) (Homo sapiens, A-431, 72 h) is 7.66; in the assay with SK-Br3 (ATCC: HTB-30) (Homo sapiens, SK-BR-3, 72 h), 8.22.

As to `COCC(=O)NCCC(=O)Nc1ccc2ncnc(Nc3ccc(OCc4ccccn4)c(Cl)c3)c2c1` [Example 129-2, N-{4-[3-chloro-4-(pyridin-2-ylmethoxy)-phenylamino]-quinazolin-6-yl}-3-(2-methoxy-acetylamino)-propionamide], the pIC50 was 6.31 in the assay with A431 (ATCC: CRL-1555) (Homo sapiens, A-431, 72 h) and 6.46 with SK-Br3 (ATCC: HTB-30) (Homo sapiens, SK-BR-3, 72 h).

As for `Cc1ccc(Oc2ccc(Nc3ncnc4ccc(NC(=O)CCNC(=O)CS(C)(=O)=O)cc34)cc2C)cn1` [Example 50-2, 3-(2-methanesulfonyl-acetylamino)-N-{4-[3-methyl-4-(6-methyl-pyridin-3-yloxy)-phenylamino]-quinazolin-6-yl}-propionamide], the pIC50 is 6.07 in the assay on A431 (ATCC: CRL-1555) (Homo sapiens, A-431, 72 h) and 7.00 in the assay on SK-Br3 (ATCC: HTB-30) (Homo sapiens, SK-BR-3, 72 h).

With `CS(=O)(=O)CC(=O)NCCCC(=O)Nc1ccc2ncnc(Nc3ccc(OCc4cccc(F)c4)c(Cl)c3)c2c1` [Example 88, N-{4-[3-chloro-4-(3-fluoro-benzyloxy)-phenylamino]-quinazolin-6-yl}-4-(2-methanesulfonyl-acetylamino)-butyramide], the pIC50 in the assay on A431 (ATCC: CRL-1555) (Homo sapiens, A-431, 72 h) is 6.14; in the assay on SK-Br3 (ATCC: HTB-30) (Homo sapiens, SK-BR-3, 72 h), 7.21.

On to `C=CC(=O)NCCC(=O)N(CCCN(C)C)c1ccc2ncnc(Nc3ccc(OCc4cccc(F)c4)c(Cl)c3)c2c1` [Example 141-4, N-{2-[{4-[3-chloro-4-(3-fluoro-benzyloxy)-phenylamino]-quinazolin-6-yl}-(3-dimethylamino-propyl)-carbamoyl]-ethyl}-acrylamide], for which the negative logarithm of the IC50 (pIC50) with A431 (ATCC: CRL-1555) (Homo sapiens, A-431, 72 h) is 5.88; with SK-Br3 (ATCC: HTB-30) (Homo sapiens, SK-BR-3, 72 h), 6.09.

`C=CC(=O)N(C)[C@@H](C)C(=O)Nc1cc2c(Nc3ccc(OCc4ccccn4)c(Cl)c3)ncnc2cc1OC` [Example 191, (1S)—N-(1-{4-[3-chloro-4-(pyridin-2-ylmethoxy)-phenylamino]-7-methoxy-quinazolin-6-ylcarbamoyl}ethyl)-N-methyl-acrylamide]: the pIC50 is 7.25 in the assay on A431 (ATCC: CRL-1555) (Homo sapiens, A-431, 72 h) and 8.52 in the assay with SK-Br3 (ATCC: HTB-30) (Homo sapiens, SK-BR-3, 72 h).

As for `CC(C)(C)OC(=O)NCCC(=O)Nc1ccc2ncnc(Nc3ccc(OCc4cccc(F)c4)c(Cl)c3)c2c1` [Example 19, (2-{4-[3-chloro-4-(3-fluoro-benzyloxy)-phenylamino]-quinazolin-6-ylcarbamoyl}-ethyl)-carbamic acid t-butylester], the pIC50 with A431 (ATCC: CRL-1555) (Homo sapiens, A-431, 72 h) was 6.47; in the assay on SK-Br3 (ATCC: HTB-30) (Homo sapiens, SK-BR-3, 72 h), 6.37.

Consider `CN(C)CC=CC(=O)NCCC(=O)Nc1ccc2ncnc(Nc3ccc(OCc4cccc(F)c4)c(Cl)c3)c2c1` [Example 56, 4-dimethylamino-but-2-enonylic acid (2-{4-[3-chloro-4-(3-fluoro-benzyloxy)-phenylamino]-quinazolin-6-ylcarbamoyl}-ethyl)-amide], for which the pIC50 in the assay with A431 (ATCC: CRL-1555) (setting [1]) was 6.21; with SK-Br3 (ATCC: HTB-30) (setting [2]) it was 7.29.

For `C=CC(=O)N1CC(C(=O)Nc2cc3c(Nc4ccc(OCc5ccccn5)c(Cl)c4)ncnc3cc2OC)C1` [Example 200, 1-acryloyl-azetidine-3-carboxylic acid {4-[3-chloro-4-(pyridin-2-ylmethoxy)-phenylamino]-7-methoxy-quinazolin-6-yl}-amide], the pIC50 in the assay on A431 (ATCC: CRL-1555) (Homo sapiens, A-431, 72 h) is 6.48; in the assay on SK-Br3 (ATCC: HTB-30) (Homo sapiens, SK-BR-3, 72 h), 8.10.

Turning to `C=CC(=O)N1CCC[C@H]1C(=O)Nc1cc2c(Nc3ccc(OCc4cccnc4)c(Cl)c3)ncnc2cc1OC` [Example 204, (2S)-1-acryloyl-pyrrolidine-2-carboxylic acid {4-[3-chloro-4-(pyridin-3-ylmethoxy)-phenylamino]-7-methoxy-quinazolin-6-yl}-amide], the pIC50 in the assay with A431 (ATCC: CRL-1555) (Homo sapiens, A-431, 72 h) is 7.07; in the assay with SK-Br3 (ATCC: HTB-30) (Homo sapiens, SK-BR-3, 72 h), 7.52.

As for `COCC(=O)N[C@@H](CCSC)C(=O)Nc1ccc2ncnc(Nc3ccc(OCc4cccc(F)c4)c(Cl)c3)c2c1` [Example 7-2, (2S)—N-{4-[3-chloro-4-(3-fluoro-benzyloxy)-phenylamino]-quinazolin-6-yl}-2-(2-methoxy-acetylamino)-4-methanesulfanyl-butyramide], the pIC50 in the assay on A431 (ATCC: CRL-1555) (setting [1]) was 6.13; with SK-Br3 (ATCC: HTB-30) (setting [2]), 6.58.

In the case of `C[S+]([O-])CC(=O)NCCC(=O)Nc1ccc2ncnc(Nc3ccc(OCc4cccc(F)c4)c(Cl)c3)c2c1` (stereo not shown) [Example 118, N-{4-[3-chloro-4-(3-fluoro-benzyloxy)-phenylamino]-quinazolin-6-yl}-3-(2-methanesulfinyl-acetylamino)-propionamide], the pIC50 is 6.13 with A431 (ATCC: CRL-1555) (Homo sapiens, A-431, 72 h) and 6.79 in the assay on SK-Br3 (ATCC: HTB-30) (Homo sapiens, SK-BR-3, 72 h).
